From PubChem BioAssay (NCI)
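Where inhibition never reached the appropriate level, the endpoint shown equals the highest concentration tested. Otherwise, values were interpolated linearly from a five-concentration, 48-hour dose response in 96-well plates. The concentration for 50% growth inhibition is given as GI50. TGI marks complete inhibition of growth.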

Columns and labels:
Experiment in all cases: DTP human tumour cell line panel, 48 h
[1] = test system: K-562 leukemia
[2] = test system: OVCAR-4 ovarian
[3] = test system: UACC-257 melanoma
[4] = test system: CCRF-CEM leukemia
[5] = test system: KM12 colon
[6] = test system: RXF 393 renal
[7] = test system: RPMI-8226 leukemia
[8] = test system: MALME-3M melanoma
[9] = test system: HOP-62 NSCLC
[10] = test system: MCF7 breast

SMILES | GI50 [1] [µM] | TGI [1] [µM] | TGI [2] [µM] | GI50 [3] [µM] | TGI [3] [µM] | GI50 [4] [µM] | TGI [4] [µM] | GI50 [5] [µM] | TGI [5] [µM] | GI50 [6] [µM] | TGI [6] [µM] | GI50 [7] [µM] | TGI [7] [µM] | TGI [8] [µM] | TGI [9] [µM] | TGI [10] [µM] | GI50 [10] [µM] | GI50 [2] [µM] | GI50 [9] [µM] | GI50 [8] [µM]
O=c1oc2c(O)c(O)cc3c(=O)oc4c(O)c(O)cc1c4c23 | > 100 | > 100 | > 100 | > 100 | > 100 | > 100 | > 100 | > 100 | > 100 | > 100 | > 100 | > 100 | > 100 |  |  |  |  |  |  | 
CSC(=NC(=O)c1ccccc1)SCCSC(=NC(=O)c1ccccc1)SC |  | > 100 | 87.6 |  | > 100 |  | > 100 |  | > 100 |  | > 100 |  | > 100 | > 100 | > 100 |  |  |  |  | 
CSc1nc(SC)c2c(C)c(Br)[nH]c2n1 |  |  | > 100 |  |  |  | > 100 |  | > 100 |  | > 100 |  | > 100 | > 100 | > 100 | > 100 |  |  |  | 
C/C(CC(=O)Nc1cccc([N+](=O)[O-])c1)=N/NC(N)=S |  | > 100 |  |  | > 100 |  | > 100 |  | > 100 |  | > 100 |  | > 100 | > 100 | > 100 |  |  |  |  | 
CN(CCc1ccccn1)/[N+]([O-])=N/O (tested in a mixture with another compound) |  | > 100 | > 100 |  | > 100 |  | > 100 |  | > 100 |  | > 100 |  | > 100 | > 100 | > 100 |  |  |  |  | 
CC1=C(C(=O)Nc2ccccc2C)C(c2ccccc2O)C(C(=O)Nc2ccccc2C)=C(C)N1 |  | > 100 | 54.8 |  | 49.4 |  | > 100 |  | 31.2 |  | 47.3 |  | 66.8 | 92.4 | 45.8 |  |  |  |  | 
COC(=O)/C=C(C)/C=C/c1c(C)c(C(C)=O)c(C)n1C |  | > 100 | > 100 |  | > 100 |  | > 100 |  | > 100 |  |  |  | > 100 | > 100 | > 100 |  |  |  |  | 
O=C1C(c2ccccc2)=[N+]([O-])c2cc([N+](=O)[O-])ccc21 |  | 58.5 |  |  | 40.5 |  | 40.5 |  | 47.5 |  | 34.9 |  | 74 | 36.1 | > 100 |  |  |  |  | 
CC1OC(OC2C(O)C(OCCc3ccc(O)c(O)c3)OC(CO)C2OC(=O)/C=C/c2ccc(O)c(O)c2)C(O)C(O)C1O (centres undefined) | 15.5 | > 100 | > 100 | > 100 | > 100 |  |  | > 100 | > 100 |  |  | 42.4 | > 100 |  | > 100 | > 100 | 32.9 | > 100 | > 100 | 
C=C1CCCC2OC(OC)CCC12 (centres undefined) |  | > 100 | > 100 |  | > 100 |  | > 100 |  | > 100 |  | > 100 |  | > 100 | > 100 | > 100 |  |  |  |  | 
CCOC(=O)Nc1cc2c(c(N)n1)N=C(c1ccccc1)CN2 |  |  | > 100 |  | 50.4 | < 0.0001 |  | < 0.0001 | 49 |  | 29.2 | < 0.0001 |  | 50.8 | 18.5 | 20.5 | 0.0232 |  |  | < 0.0001
CC[C@@]1(O)C(=O)OCc2c1cc1n(c2=O)Cc2cc3cccc(N)c3nc2-1 | > 100 | > 100 | > 100 | > 100 | > 100 | 1.07 | > 100 | > 100 | > 100 | 7.1 | 94.7 | > 100 | > 100 | > 100 | 6.24 |  |  | 7.57 | 2.36 | 84.5
COc1ccc(C(=O)Nc2ccn(CCOC(=O)c3ccc(OC)cc3)c(=O)n2)cc1 |  | > 100 | > 100 |  | > 100 |  | > 100 |  | > 100 |  | 54.3 |  | > 100 | > 100 | > 100 |  |  |  |  | 
CC(=O)OC(C)(C)C[N+](=O)[O-] |  | > 100 | > 100 |  | > 100 |  | > 100 |  | > 100 |  | > 100 |  | > 100 | > 100 | > 100 |  |  |  |  | 
CCN(CC)CCNc1ccc(N=Nc2cnc3ccccc3c2)c2ccccc12 | 1.03 | 2.3 | 3.88 | 1.96 | 3.49 | 0.223 | 1.09 | 1.56 | 2.89 | 1.88 | 4.05 |  |  |  | 3.02 | 2.7 | 1.37 | 1.85 | 1.66 | 
O=C1c2c(c3c4ccccc4n(CCCCCCN4CCOCC4)c3c3[nH]c4ccccc4c23)C(=O)N1O |  |  | 20.7 | 24.5 | 56.6 | 2.25 | 8.35 | 7.01 | 57.7 | 7.61 | 25.9 | 2.57 | 7.76 | 3.76 | 55.2 | 7.73 | 2.07 | 4.44 | 18.2 | 1.74
CC(=O)CCn1[nH]c(=O)c(Cl)c(Cl)c1=O |  | > 100 | > 100 |  | > 100 |  | > 100 |  | > 100 |  | > 100 |  | > 100 | > 100 | > 100 |  |  |  |  | 
Cc1cc(=O)n2c(cc3cccccc32)n1 |  | > 100 | > 100 |  | > 100 |  | > 100 |  | > 100 |  | > 100 |  | > 100 |  | > 100 |  |  |  |  | 
CCCCCCCCC1C(C)c2c([nH]c3ccccc23)C2C(=O)N(c3ccccc3)C(=O)C21 (centres undefined) |  | 14.7 | 15.8 |  |  |  | 7.09 |  | 13.5 |  | 6.84 |  | 12.9 | 39.1 | 38.3 |  |  |  |  | 
O=C(CO)CC(=O)C(=O)Nc1cccc(C(F)(F)F)c1 |  | > 100 | > 100 |  | > 100 |  |  |  | > 100 |  |  |  | > 100 | > 100 | > 100 |  |  |  |  | 
